In publication PMC4109680, “Identification and Preclinical Pharmacology of the γ-Secretase Modulator BMS-869780” (International Journal of Alzheimer's Disease, 2014):
Where two headings read alike, the source gives them in different places.

Tested on: brain Aβ1-42
Assay: Rat time course PK/PD, oral dose, indirect response model
Format: in vivo
Conditions: for IC50: po
Method: Figure 8 Analysis of the PK/PD relationship for BMS-869780 in rats and mice. Rats were dosed orally with BMS-869780 at 10 mg/kg, and triple transgenic mice were orally dosed at 30 mg/kg and 100 mg/kg. Additional groups of rats and mice were dosed with vehicle alone. Brain and plasma were harvested at 3, 5, 8, 16, and 24 hours after dosing for determination of brain Aβ1-42 and plasma BMS-869780 concentration. Group sizes were 5 rats or 4 mice. Whiskers represent standard error. […] The data were fit to a one-compartment PK model and the predicted plasma BMS-869780 concentrations are shown for mouse (solid lines) and rat (broken line). […] The data were fitted using the indirect pharmacodynamic response model and predicted values are shown (solid lines). (c) Brain Aβ1-42 levels were determined for the rats dosed with BMS-869780 at 10 mg/kg (▼) or vehicle alone (●). The data were fitted using the indirect pharmacodynamic response model and predicted values are shown (dashed line). (d) Brain Aβ1-40 levels determined in the same rats as illustrated in (c).
All experimental procedures with animals followed National Institutes of Health guidelines and were authorized by and in compliance with policies of the Bristol-Myers Squibb Animal Use and Care Committee. Mice and rats were housed with a 6:00 AM to 6:00 PM light/dark cycle and allowed free access to food and water. For 3xTg mice, BMS-869780 was dosed in three-month-old females by oral gavage at 6 mL/kg in vehicle consisting of 84% polyethylene glycol average molecular weight of 400 (PEG-400), 15% EtOH, and 1% Tween-80 (w/w/w). The compound was dissolved in EtOH and then diluted with PEG-400 and Tween, after which the vial was sealed, vortexed, and sonicated at 56°C for 1 hour. Animals were euthanized by asphyxiation in CO2. Blood was collected by cardiac puncture and placed into ethylene-diaminetetraacetic acid microtainer tubes for the preparation of plasma. The cerebellum was collected for the determination of compound concentration, and the remaining brain was separated into left and right halves before freezing in liquid nitrogen. For the rat time course study, 8- to 12-week-old female Sprague-Dawley rats were obtained from Charles River Laboratories (Wilmington, MA), BMS-869780 was dosed orally at 4 mL/kg, and brain and plasma samples were collected as described for the 3xTg mice. For the four day repeat dose rat study, BMS-869780 was given by oral gavage in vehicle consisting of PEG-400, PEG-200, D-α-tocopheryl polyethylene glycol succinate, Solutol HS 15, in the ratio 80 : 10 : 5 : 5 (w/w/w/w). Methods for the pharmacokinetics studies in rat, dog, and monkey are described below.
The data generated in the mouse and rat time course experiments were analyzed sequentially by nonlinear regression (WinNonlin Pharsight Corporation, Mountain View, CA). The pharmacokinetic data were best described by a 1-compartment linear model with first-order absorption and elimination. Subsequently, the pharmacodynamic parameters were estimated from the BMS-869780 plasma concentrations and the observed reductions of brain Aβ1-42 or Aβ1-40 by fitting to the equation for inhibition of synthesis. The goodness-of-fit was determined by visual inspection, Akaike Information Criterion, Schwartz Criterion, examination of the residuals and the coefficient of variation of the parameter estimates.

[1] = Rat 10 mg/kg PO solution (observed 0–24 hours)

COc1cc(Nc2nc3n(n2)CCCC[C@H]3c2ccc(F)cc2)ccc1-n1cnc(Cl)c1 [BMS-869780]
Brain Aβ ABEC 24 hr Aβ1-40 [1]: 46.1% | Brain Aβ ABEC 24 hr Aβ1-42 [1]: 47.0% | IC50 (Rattus norvegicus, read-out: in vivo plasma IC50 for brain Aβ1-42): 1900 nM | IC50 (rat, PD model, read-out: IC50 (plasma concentration required for 50% inhibition of Aβ production)): 1890 nM | V/F (rat): 1.94 L/kg | in vivo IC50 (corrected for protein binding) relative to in vitro IC50 for Aβ1-42 (rat and 3xTg mouse, M146V allele taken into account for mouse): ≤ 2 fold | Ka1 (10 mg/kg) (rat, 10 mg/kg oral): 0.19 h⁻¹ | K in (rat, calculated): 48 %/h | K OUT (rat, rate constant for degradation of Aβ): 0.48 h⁻¹
